This test deals with T1, human PD-1 / PD-L1-Ig binding on Jurkat cell line over-expressing human PD-1 (Jurkat-PD-1) (Homo sapiens, UniProt Q15116).
T1 construct: expressed in transfected cells; host or cells: Jurkat
The experiment in a line: Jurkat-PD-1 Cell Binding High-Content Screening Assay (CBA). Type of test: cell-based. As to conditions: Jurkat-PD-1 cells, PE-labeled PD-L1-Ig 20 nM final; read-out: Jurkat HPD1_PDL1 IC50. In a few lines:
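Jurkat-hPD-1 cells in DMEM with 10% fetal calf serum receive test compound and are held at 37° C for 2 h. PE-labeled PD-L1-Ig is added at 20 nM final and left for 1 hour. Cells are then fixed and Hoechst-stained, and binding is measured by imaging.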

pIC50: −log10 of the molar value. *1 amine or outer side, *2 acyl side, *3 side chain or, on linkers, in order; H or OH if unused. Where a SMILES comes first, the peptide text is derived from it. Bridges are numbered along the chain shown (N, C = ends). [ ]: non-standard residue; d: D form. The star is where a group is joined. ξ: configuration not given here. Ala(1H-tetrazol-5-yl) = N[C@@H](Cc1nnn[nH]1)C(=O)O; Phe(4-COOH) = N[C@@H](Cc1ccc(C(=O)O)cc1)C(=O)O; X5 = O=C([C@H](Cc1ccc2ncccc2c1)N[*:1])[*:2]; Bip = N[C@@H](Cc1ccc(-c2ccccc2)cc1)C(=O)O; Phe(3-Me) = Cc1cccc(C[C@H](N)C(=O)O)c1; Val(3-OH) = CC(C)(O)[C@H](N)C(=O)O; 4Pal = N[C@@H](Cc1ccncc1)C(=O)O; Cha = N[C@@H](CC1CCCCC1)C(=O)O; Ile(3ξ) = CCC(C)[C@H](N)C(=O)O; Carboxymethyl = O=C(O)C*; Orn = NCCC[C@H](N)C(=O)O; dDap = NC[C@@H](N)C(=O)O; Dab = NCC[C@H](N)C(=O)O; Dap = NC[C@H](N)C(=O)O; Propargyl = C#CC*

T1 sequence (Q15116 25-288): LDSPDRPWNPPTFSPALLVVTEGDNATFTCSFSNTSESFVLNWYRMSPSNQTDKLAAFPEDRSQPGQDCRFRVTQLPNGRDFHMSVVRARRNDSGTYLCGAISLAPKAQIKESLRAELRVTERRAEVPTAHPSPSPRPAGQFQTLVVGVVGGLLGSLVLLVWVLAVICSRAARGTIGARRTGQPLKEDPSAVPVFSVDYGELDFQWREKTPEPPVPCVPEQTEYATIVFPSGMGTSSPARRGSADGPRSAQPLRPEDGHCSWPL

In general, pIC50 refers to −log10 of the IC50, conventionally taken in molar units. `CCC(C)[C@@H]1NC(=O)[C@H](Cc2ccc(-c3ccccc3)cc2)NC(=O)[C@H](C(C)C)NC(=O)[C@H](Cc2cccc(C)c2)NC(=O)[C@H](CC(=O)O)NC(=O)[C@H](Cc2ccc(C(=O)O)cc2)NC(=O)[C@H](Cc2ccncc2)NC(=O)CSC[C@@H](C(N)=O)NC(=O)[C@H](CCC(N)=O)NC(=O)[C@H](C(C)C)NC(=O)[C@H](CC2CCCCC2)NC(=O)[C@H](CCN)NC(=O)[C@@H](CC(C)C)NC(=O)[C@H](CCCN)NC1=O` (stereo partly drawn) [Compound 2280] ({CH2CO}-[4Pal][Phe(4-COOH)]D[Phe(3-Me)]V[Bip][Ile(3ξ)][Orn][dL][Dab][Cha]VQC-NH2; thioether N-14): the negative-log IC50 (pIC50) was 7.39.

For `CC(C)C[C@@H]1NC(=O)[C@H](Cc2c[nH]c3ccccc23)NC(=O)[C@H](CC(=O)O)NC(=O)[C@H](Cc2ccncc2)NC(=O)[C@H](Cc2ccc(OCC(=O)O)cc2)NC(=O)CSC[C@@H](C(=O)NCC(N)=O)NC(=O)[C@H](CO)NC(=O)[C@H](C(C)C)NC(=O)[C@H](CC(C)C)NC(=O)[C@H](CC(N)=O)NC(=O)[C@@H](CC(C)C)NC(=O)[C@H](CCN)NC(=O)[C@H](C(C)C)NC(=O)[C@H](Cc2ccc(-c3ccccc3)cc2)NC1=O` [Compound 1282] ({CH2CO}-Y(Carboxymethyl)[4Pal]DWL[Bip]V[Dab][dL]NLVSCG-NH2; thioether N-14), the negative-log IC50 (pIC50) is 7.93.

As to `Cc1cccc(C[C@@H]2NC(=O)[C@H](CC(=O)O)NC(=O)[C@H](Cc3ccc(OCC(=O)O)cc3)NC(=O)[C@H](Cc3ccncc3)NC(=O)CSC[C@@H](C(=O)N[C@@H](CCN)C(N)=O)NC(=O)[C@H](CCC(=O)O)NC(=O)[C@H](C(C)(C)O)NC(=O)[C@H](CC3CCCCC3)NC(=O)[C@H](CCN)NC(=O)[C@@H](CC(C)C)NC(=O)[C@H](CCCN)NC(=O)[C@H](Cc3ccc(C(=O)O)cc3)NC(=O)[C@H](Cc3ccc(-c4ccccc4)cc3)NC(=O)[C@H](Cc3ccc(C(=O)O)cc3)NC2=O)c1` [Compound 2677] ({CH2CO}-[4Pal]Y(Carboxymethyl)D[Phe(3-Me)][Phe(4-COOH)][Bip][Phe(4-COOH)][Orn][dL][Dab][Cha][Val(3-OH)]EC[Dab]-NH2; thioether N-14), the pIC50 is 8.22.

Turning to `CC(C)C[C@@H]1NC(=O)[C@H](CCN)NC(=O)[C@@H](CC(C)C)NC(=O)[C@H](CCCN)NC(=O)[C@H](C(C)C)NC(=O)[C@H](Cc2ccc(-c3ccccc3)cc2)NC(=O)[C@H](C(C)C)NC(=O)[C@H](Cc2c[nH]c3ccccc23)NC(=O)[C@H](CC(=O)O)NC(=O)[C@H](Cc2ccc(C(=O)O)cc2)NC(=O)[C@H](CN)NC(=O)CSC[C@@H](C(=O)N[C@@H](C)C(N)=O)NC(=O)[C@H]([C@@H](C)O)NC(=O)[C@H](C(C)C)NC1=O` [Compound 1046] ({CH2CO}-[Dap][Phe(4-COOH)]DWV[Bip]V[Orn][dL][Dab]LVTCA-NH2; thioether N-14), the negative logarithm of the IC50 (pIC50) is 7.85.

As to `Cc1cccc(C[C@@H]2NC(=O)[C@H](CC(=O)O)NC(=O)[C@H](Cc3ccc(C(=O)O)cc3)NC(=O)[C@H](CN)NC(=O)CSC[C@@H](C(=O)N[C@@H](C)C(N)=O)NC(=O)[C@H]([C@@H](C)O)NC(=O)[C@H](C(C)C)NC(=O)[C@H](CC3CCCCC3)NC(=O)[C@H](CCN)NC(=O)[C@@H](CC(C)C)NC(=O)[C@H](CCCN)NC(=O)[C@H](CCCNC(N)=O)NC(=O)[C@H](Cc3ccc(-c4ccccc4)cc3)NC(=O)[C@H](C(C)C)NC2=O)c1` [Compound 1202], the pIC50 is 8.01.

Take `Cc1cccc(C[C@@H]2NC(=O)[C@H](CC(=O)O)NC(=O)[C@H](Cc3ccc(OCC(=O)O)cc3)NC(=O)[C@H]([C@@H](C)O)NC(=O)CSC[C@@H](C(N)=O)NC(=O)[C@H](CC(=O)O)NC(=O)[C@H](C(C)C)NC(=O)[C@H](CC3CCCCC3)NC(=O)[C@H](CCN)NC(=O)[C@@H](CC(C)C)NC(=O)[C@H](CCCN)NC(=O)[C@H](Cc3ccc(OCC(=O)O)cc3)NC(=O)[C@H](Cc3ccc(-c4ccccc4)cc3)NC(=O)[C@H](Cc3ccc(OCC(=O)O)cc3)NC2=O)c1` [Compound 1798] ({CH2CO}-TY(Carboxymethyl)D[Phe(3-Me)]Y(Carboxymethyl)[Bip]Y(Carboxymethyl)[Orn][dL][Dab][Cha]VDC-NH2; thioether N-14): the negative-log IC50 (pIC50) is 7.57.

Regarding `CC(C)C[C@H]1NC(=O)[C@H](CCCN)NC(=O)[C@H](CCC(=O)O)NC(=O)[C@H](Cc2ccc(-c3ccccc3)cc2)NC(=O)[C@H](C(C)C)NC(=O)[C@H](Cc2c[nH]c3ccccc23)NC(=O)[C@H](CC(=O)O)NC(=O)[C@H](Cc2ccc(OCC(=O)O)cc2)NC(=O)[C@H](CN)NC(=O)CSC[C@@H](C(=O)N[C@@H](C)C(N)=O)NC(=O)[C@H]([C@@H](C)O)NC(=O)[C@H](C(C)C)NC(=O)[C@H](CC2CCCCC2)NC(=O)[C@H](CC(=O)O)NC1=O` [Compound 1514] ({CH2CO}-[Dap]Y(Carboxymethyl)DWV[Bip]E[Orn][dL]D[Cha]VTCA-NH2; thioether N-14), the negative logarithm of the IC50 (pIC50) was 7.46.

As to `CC(C)C[C@H]1NC(=O)[C@H](CCCN)NC(=O)[C@H](CCC(=O)O)NC(=O)[C@H](Cc2ccc(-c3ccccc3)cc2)NC(=O)[C@H](C(C)C)NC(=O)[C@H](Cc2c[nH]c3ccccc23)NC(=O)[C@H](CC(=O)O)NC(=O)[C@H](Cc2ccc3ncccc3c2)NC(=O)[C@H](Cc2ccccc2)NC(=O)CSC[C@@H](C(=O)N[C@@H](C)C(N)=O)NC(=O)[C@H]([C@@H](C)O)NC(=O)[C@H](C(C)C)NC(=O)[C@H](CC2CCCCC2)NC(=O)[C@H](CCN)NC1=O` [Compound 2176] ({CH2CO}-F[X5]DWV[Bip]E[Orn][dL][Dab][Cha]VTCA-NH2; thioether N-14), the negative logarithm of the IC50 (pIC50) was 6.96.

For `Cc1cccc(C[C@@H]2NC(=O)[C@H](Cc3nn[nH]n3)NC(=O)[C@H](Cc3ccc(OCC(=O)O)cc3)NC(=O)[C@H](CN)NC(=O)CSC[C@@H](C(=O)NCC(N)=O)NC(=O)[C@H](CO)NC(=O)[C@H](C(C)C)NC(=O)[C@H](CC(C)C)NC(=O)[C@H](CC(N)=O)NC(=O)[C@@H](CC(C)C)NC(=O)[C@H](CN)NC(=O)[C@H](C(C)C)NC(=O)[C@H](Cc3ccc(-c4ccccc4)cc3)NC(=O)[C@H](CC(C)C)NC2=O)c1` [Compound 1273] ({CH2CO}-[Dap]Y(Carboxymethyl)[Ala(1H-tetrazol-5-yl)][Phe(3-Me)]L[Bip]V[Dap][dL]NLVSCG-NH2; thioether N-14), the pIC50 was 7.26.

Regarding `CC(C)C[C@@H]1NC(=O)[C@H](Cc2c[nH]c3ccccc23)NC(=O)[C@H](CC(=O)O)NC(=O)[C@H](Cc2ccc(OCC(=O)O)cc2)NC(=O)[C@H](CN)NC(=O)CSC[C@@H](C(=O)N[C@@H](C)C(N)=O)NC(=O)[C@H]([C@@H](C)O)NC(=O)[C@H](C(C)C)NC(=O)[C@H](CC(C)C)NC(=O)[C@H](CCN)NC(=O)[C@@H](CC(C)C)NC(=O)[C@H](CCCN)NC(=O)[C@H](C(C)C)NC(=O)[C@H](Cc2ccc(-c3ccccc3)cc2)NC1=O` [Compound 1313] ({CH2CO}-[Dap]Y(Carboxymethyl)DWL[Bip]V[Orn][dL][Dab]LVTCA-NH2; thioether N-14), the pIC50 is 7.80.

Consider `C#CCOc1ccc(C[C@@H]2NC(=O)[C@H](C(C)C)NC(=O)[C@H](CC3CCCCC3)NC(=O)[C@H](CCN)NC(=O)[C@@H](CC(C)C)NC(=O)[C@H](CCCN)NC(=O)[C@H](Cc3ccc(OCC(=O)O)cc3)NC(=O)[C@H](Cc3ccc(-c4ccccc4)cc3)NC(=O)[C@H](Cc3ccc(OCC(=O)O)cc3)NC(=O)[C@H](Cc3cccc(C)c3)NC(=O)[C@H](CC(=O)O)NC(=O)[C@H](Cc3ccc(OCC(=O)O)cc3)NC(=O)[C@H](CCN)NC(=O)CSC[C@@H](C(=O)N[C@@H](CCN)C(N)=O)NC2=O)cc1` [Compound 1814] ({CH2CO}-[Dab]Y(Carboxymethyl)D[Phe(3-Me)]Y(Carboxymethyl)[Bip]Y(Carboxymethyl)[Orn][dL][Dab][Cha]VY(Propargyl)C[Dab]-NH2; thioether N-14), for which the negative logarithm of the IC50 (pIC50) is 7.64.

For `CNC[C@@H]1NC(=O)CSC[C@@H](C(=O)N[C@@H](C)C(N)=O)NC(=O)[C@H](C(C)O)NC(=O)[C@H](C(C)C)NC(=O)[C@H](CC2CCCCC2)NC(=O)[C@H](CCN)NC(=O)[C@@H](CC(C)C)NC(=O)[C@H](CCCN)NC(=O)[C@H](C(C)C)NC(=O)[C@H](Cc2ccc(-c3ccccc3)cc2)NC(=O)[C@H](C(C)C)NC(=O)[C@H](Cc2c[nH]c3ccccc23)NC(=O)[C@H](CC(=O)O)NC(=O)[C@H](Cc2ccc(OCC(=O)O)cc2)NC1=O` (some centres unmarked) [Compound 2515], the negative-log IC50 (pIC50) is 7.79.

With `CC(C)C[C@@H]1NC(=O)[C@H](Cc2c[nH]c3ccccc23)NC(=O)[C@H](CC(=O)O)NC(=O)[C@H](Cc2ccc(O)cc2)NC(=O)[C@H](Cc2ccccc2)NC(=O)CSC[C@@H](C(=O)N[C@@H](C)C(N)=O)NC(=O)[C@H](CO)NC(=O)[C@H](C(C)C)NC(=O)[C@H](CC(C)C)NC(=O)[C@H](CC(N)=O)NC(=O)[C@@H](C)NC(=O)[C@@H](CN)NC(=O)[C@H](C(C)C)NC(=O)[C@H](Cc2ccc(-c3ccccc3)cc2)NC1=O` [Compound 2002] ({CH2CO}-FYDWL[Bip]V[dDap][dA]NLVSCA-NH2; thioether N-14), the pIC50 is 7.27.

As to `CC[C@H](C)[C@@H]1NC(=O)[C@H](Cc2ccc(-c3ccccc3)cc2)NC(=O)[C@H](C(C)C)NC(=O)[C@H](Cc2c[nH]c3ccccc23)NC(=O)[C@H](CC(=O)O)NC(=O)[C@H](Cc2ccc(O)cc2)NC(=O)[C@H](Cc2ccncc2)NC(=O)CSC[C@@H](C(=O)N[C@@H](C)C(N)=O)NC(=O)[C@H]([C@@H](C)O)NC(=O)[C@H](C(C)C)NC(=O)[C@H](CC(C)C)NC(=O)[C@H](CCN)NC(=O)[C@@H](CC(C)C)NC(=O)[C@H](CCCN)NC1=O` [Compound 1053] ({CH2CO}-[4Pal]YDWV[Bip]I[Orn][dL][Dab]LVTCA-NH2; thioether N-14), the negative-log IC50 (pIC50) is 7.86.

The values are drawn from patent publication US20250163104A1, “MACROCYCLIC IMMUNOMODULATORS” (priority 2021, published 2025).
